According to the NIST ThermoML archive (doi:10.1021/je060380p):
Numbers after ± are expanded uncertainties.

Settings: Crystal; visual observation

Normal melting temperature: 216 ± 1 °C
SMILES: c1ccc2cc3ccccc3cc2c1 [anthracene]
